Reference: US9199997B2, “Purinone derivative hydrochloride” (ONO PHARMACEUTICAL CO., LTD., priority 2011, dated 2015)
≈ marks a conversion by molar mass, not a printed value.

How the values were obtained:
[1] = Measurement of solubility (HPLC); assay type: physicochemical; settings: thermodynamic from solid; for solubility at 30 min: after 30 min; for solubility at 24 h: after 24 h
Description: <HPLC Measurement Conditions>
Device: HPLC 1100series, Agilent
Column: YMC-Pack ODS-AM AM-302 (4.6 mm ID×150 mm long)
Column temperature: 25° C.
Mobile phase: 20 mM potassium phosphate monobasic (pH 3.0)/acetonitrile (60:40, isocratic)
Sample rack temperature: 25° C.
Sample injection volume: 10 μL

Blood kinetics in dogs = assay type: in vivo; settings: male, beagle, dog, plasma; solubilized solution (WellSolve), oral gavage 1 mg/kg vs intravenous 1 mg/kg, fasted dogs; read-out: bioavailability (BA)
Description: The kinetic profiles of compound A and the salt thereof (the compound prepared in Example 9) in blood were evaluated in male beagle dogs under fasting conditions. […] For the intravenous and oral solution administrations, a solubilized solution of Compound A dissolved in WellSolve (Celeste Inc.) heated to 60° C. was used. Using the solubilized solutions, doses of 1 mg/1 mL/kg were rapidly administered intravenously with a syringe via a forelimb cephalic vein, and doses of 1 mg/5 mL/kg were administered by gavage using a catheter. […] The concentration of Compound A in the plasma was measured by LC/MS/MS (UPLC/Xevo, Waters). The area under the curve (AUC, ng·h/mL), maximum concentration (Cmax, μg/mL) and clearance (CL, mL/hr/kg) were calculated from the plasma concentration. The bioavailability (BA) of Compound A was calculated from the AUC of the oral dose and the AUC of the intravenous dose.
Moreover, for the oral suspension administration a liquid was prepared by finely pulverizing Compound A and suspending the particles in an aqueous solution of 0.5% methylcellulose, and then administering doses of 3 and 10 mg/kg in the same manner as the forced oral administration by gavage described above. […] The BA values for each administration method and at each concentration were calculated as relative BA by assigning the BA of Compound A in the solubilized solution a value of 100%.

[2] = FaSSIF (artificial intestinal fluid), FaSSIF (pH 6.5)
[3] = FeSSIF (artificial intestinal fluid), FeSSIF (pH 6.5)
[4] = Japanese Pharmacopoeia dissolution test I liquid, simulated gastric fluid, JP dissolution test I liquid (pH 1.2)
[5] = Japanese Pharmacopoeia dissolution test II liquid, aqueous buffer, JP dissolution test II liquid (pH 6.8)
[6] = diluted McIlvaine buffer, aqueous buffer, Dilute McIlvaine buffer (pH 4.0)
[7] = diluted McIlvaine buffer, aqueous buffer, Dilute McIlvaine buffer (pH 7.4)

Row | SMILES | solubility at 30 min [1, 2] [µg/mL] | solubility at 24 h [1, 2] [µg/mL] | solubility at 30 min [1, 3] [µg/mL] | solubility at 24 h [1, 3] [µg/mL] | solubility at 30 min [1, 4] [µg/mL] | solubility at 24 h [1, 4] [µg/mL] | solubility at 30 min [1, 5] [µg/mL] | solubility at 24 h [1, 5] [µg/mL] | solubility at 30 min [1, 6] [µg/mL] | solubility at 24 h [1, 6] [µg/mL] | solubility at 30 min [1, 7] [µg/mL] | solubility at 24 h [1, 7] [µg/mL] | solubility at 30 min ([1]; Purified water) [µg/mL] | solubility at 24 h ([1]; Purified water) [µg/mL] | bioavailability (Blood kinetics in dogs) [%]
1 | CC#CC(=O)N1CC[C@@H](n2c(=O)n(-c3ccc(Oc4ccccc4)cc3)c3c(N)ncnc32)C1 [Compound A, 6-amino-9-[(3R)-1-(2-butynoyl)-3-pyrrolidinyl]-7-(4-phenoxyphenyl)-7,9-dihydro-8H-purin-8-one] | 35 (≈ 77 µM) | 36 (≈ 79.2 µM) | 67 (≈ 147 µM) | 84 (≈ 185 µM) | 550 (≈ 1210 µM) | 717 (≈ 1580 µM) | 31 (≈ 68.2 µM) | 32 (≈ 70.4 µM) | 30 (≈ 66 µM) | 34 (≈ 74.8 µM) | 29 (≈ 63.8 µM) | 29 (≈ 63.8 µM) | 32 (≈ 70.4 µM) | 34 (≈ 74.8 µM) | 115
2 | CC#CC(=O)N1CC[C@@H](n2c(=O)n(-c3ccc(Oc4ccccc4)cc3)c3c(N)ncnc32)C1.Cl [Example 9, 6-amino-9-[(3R)-1-(2-butynoyl)-3-pyrrolidinyl]-7-(4-phenoxyphenyl)-7,9-dihydro-8H-purin-8-one hydrochloride] | 145 | 118 | 356 | 301 | 1220 | 1210 | 112 | 111 | 125 | 117 | 103 | 106 | 130 | 144 | –
